Reference: article PMC8514817, “De Novo Design of Antimicrobial Peptides With a Special Charge Pattern and Their Application in Combating Plant Pathogens” (Frontiers in Plant Science, 2021)

Key:
Pss B728a = details: Table 4, rich medium, up to 32 μg/ml
Cgl FST02 = details: at the highest peptide concentration (32μg/ml) tested; data not shown; before the tests in minimal media
Xev Xvt28 [1] = details: 48 h
Eco DH5α [2] = details: DH5α, 24 h
Xcc Xcc17 = details: Table 4, rich medium, up to 32 μg/ml
Pst DC3000 = details: Table 4, rich medium, up to 32 μg/ml
Xev Xvt28 [3] = details: 24 h
Xoo Xoo28 = details: Table 4, rich medium, up to 32 μg/ml
Bc = details: at the highest peptide concentration (32μg/ml) tested; data not shown; before the tests in minimal media
Atu C58C1 = details: Table 4, rich medium, up to 32 μg/ml
Eco DH5α [4] = details: 48 h
[5] = tested on: Ralstonia solanacearum (Rs); format: cell-based; details: at the highest peptide concentration (32μg/ml) tested; data not shown; before the tests in minimal media
[6] = spotted on rich agar 48 h, no colony

Ac-WKKLKKLLKKLKKLLKKL-NH2 [pepD]
MIC (Pss B728a; 48 h, no visible growth): 32 µg/mL
MBC (Pss B728a; [6]): – (“–” indicates that no antimicrobial activity was detected in rich media at the highest peptide concentration (32μg/ml) that was tested in this study.)
MBC (Pcc): – (key: “–” indicates that no antimicrobial activity was detected in rich media at the highest peptide concentration (32μg/ml) that was tested in this study.)
MIC (Pcc; Table 4, rich medium, 48 h, no visible growth, up to 32 μg/ml): 32 µg/mL
antimicrobial activity (Cgl FST02): did not have detectable antimicrobial activity
MBC (Xev Xvt28 [1]): 16 µg/mL
MIC (Xev Xvt28 [1]): 4 µg/mL
IC50 (Eco DH5α [2]): 10 µg/mL
MIC (Xcc Xcc17; 48 h, no visible growth): 2 µg/mL
MBC (Xcc Xcc17; [6]): 8 µg/mL
MIC (Pst DC3000; 48 h, no visible growth): 16 µg/mL
MBC (Pst DC3000; [6]): 32 µg/mL
IC50 (Xev Xvt28 [3]): 4 µg/mL
MIC (Xoo Xoo28; 48 h, no visible growth): 4 µg/mL
MBC (Xoo Xoo28; [6]): 4 µg/mL
antimicrobial activity (Bc): did not have detectable antimicrobial activity
MIC (Atu C58C1; 48 h, no visible growth): 4 µg/mL
MBC (Atu C58C1; [6]): – (“–” indicates that no antimicrobial activity was detected in rich media at the highest peptide concentration (32μg/ml) that was tested in this study.)
MBC (Eco DH5α [4]): 8 µg/mL
MIC (Eco DH5α [4]): 8 µg/mL
antimicrobial activity [5]: did not have detectable antimicrobial activity
